{"source": "paper PMC2195568", "about": "(The Journal of Experimental Medicine, 1999)", "key": {"[1]": {"test_system": "PBMCs of patients with chronic HCV infection", "format": "cell-based, human", "settings": "HCV core 178 stimulation; result in words"}, "[2]": {"test_system": "PBMCs from healthy HCV-seronegative blood donors", "format": "cell-based, human", "settings": "of 12 healthy donors"}, "[3]": {"test_system": "CTLs in the peripheral blood of patients with chronic HCV infection", "settings": "cited from earlier work"}, "[4]": {"settings": "after stimulation with HCV core 178"}}, "data": [{"sequence": "LLALLSCLTV [HCV core 178]", "values": [{"measurement": "percentage of patients having cross-reactive CTLs compared with healthy donors", "setting": "[1]", "value": "comparable to that of healthy donors"}, {"measurement": "blood donors with induced HCV core 178–specific CTLs", "setting": "[2]; 10 μg/ml peptide, four replica cultures, 5 wk stimulation", "value": "nine"}, {"measurement": "individuals recognizing HCV core 178 and CYP2A7 8–17", "setting": "[2]; [4]", "value": "three"}, {"measurement": "individuals recognizing HCV core 178 only", "setting": "[2]; [4]", "value": "four"}, {"measurement": "individuals without CTL response", "setting": "[2]; [4]", "value": "three"}, {"measurement": "processing and presentation of the peptide", "setting": "[3]", "value": "processed and presented via the endogenous MHC class I pathway"}, {"measurement": "recognition by CTLs in patients with chronic HCV infection", "setting": "[3]; peripheral blood", "value": "target epitope for CTLs"}]}]}
